Experimental data published in patent publication US9404192B2, “Highly stable electrolytic water with reduced NMR half line width” (priority 2007, dated 2016).

Test system: Reconstructed Human Epidermids (RHEs)
Assay: trans-epithelial electrical resistance (TEER) testing
Type: cell-based
Conditions: SDS 0.1% solution on RHE, FIG. 3
Procedure: The formulations described in Tables B-F were tested for their effect on trans-epithelial electrical resistance according to the following procedure.
1 ml of saline solution is directly applied on the tissue placed in a 6 well plate containing 4 ml of saline solution as well.
The instrument Millicell-ERS (range 0-20 kΩ) is placed with the two electrodes in the two chambers and the measure is recorded directly and reported in the laboratory note book.
Five measurements for each tissue have been done: because of the variability within the tissues the measurement done at t=0 has been taken as basal value and reference of each single tissue.
At the arrival the tissues have been placed in 6 well plates with maintenance medium (SkinEthic) for 2 hours before the TEER measurements.
The basal TEER value is measured on all the tissue as described in the method.
The tissues have been recovered in maintenance medium (1 ml) and the test items have been applied at the dose of 50 μl.
Tissues have been finally incubated at 37° C. in 5% CO2 incubator.
The tissues have been rinsed with saline solution and the second TEER measurement, corresponding to the 24 h exposure, has been performed.
The RHEs have been recovered in fresh maintenance medium (1 ml) for a 24 h post incubation time. […]

CCCCCCCCCCCCOS(=O)(=O)[O-].[Na+] [sodium dodecyl sulphate]
TEER: strong decrease of TEER
